Data: the supplement of paper PMC10307832

Assays:
Experiment in all cases: relative viability (nuclei count vs DMSO), 5 days (fraction); higher = more cells survive
[1] = compound: CC(=O)Nc1cccc(-n2c(=O)n(C3CC3)c(=O)c3c(Nc4ccc(I)cc4F)n(C)c(=O)c(C)c32)c1 [Trametinib] + Cc1cc(Nc2cc(N3CCN(C)CC3)nc(Sc3ccc(NC(=O)C4CC4)cc3)n2)n[nH]1 [Tozasertib] (partner 0.1 µM)
Outline: (§1)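 One day after seeding in 1536-well plates, lung cancer cell lines were dosed by pin tool. Dosing was either single-drug or a fixed anchor-drug dose plus five library-drug doses (not always all listed) in √10 steps. After 5 days, nuclei were stained in one fix-and-stain step and counted on 4× images, and relative viability is the nuclei count of treated wells over that of vehicle wells, given as the median of duplicate plates.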

[2] = compound: CN1C=C(C2=CC=CC=C21)/C=C\3/C4=C(C=CC=N4)NC3=O + COc1cc2c(Oc3ccc(NC(=O)C4(C(=O)Nc5ccc(F)cc5)CC4)cc3F)ccnc2cc1OCCCN1CCOCC1 [Foretinib] (partner 0.25 µM)
Outline: as §1

[3] = compound: CN1C=C(C2=CC=CC=C21)/C=C\3/C4=C(C=CC=N4)NC3=O + COc1cccc2cc(-c3nc([C@H]4CC[C@H](C(=O)O)CC4)n4ncnc(N)c34)[nH]c12 [OSI-027] (partner 0.5 µM)
Outline: as §1

[4] = compound: CN1C=C(C2=CC=CC=C21)/C=C\3/C4=C(C=CC=N4)NC3=O + NC(=O)Nc1cc(-c2cccc(F)c2)sc1C(=O)N[C@H]1CCCNC1 [AZD7762] (partner 0.2 µM)
Outline: as §1

Cell Line | relative viability ([1]; first compound 0.0025 µM) | relative viability ([1]; first compound 0.007906 µM) | relative viability ([1]; first compound 0.025 µM) | relative viability ([1]; first compound 0.07906 µM) | relative viability ([1]; first compound 0.25 µM) | relative viability ([2]; first compound 0.02 µM) | relative viability ([2]; first compound 0.06325 µM) | relative viability ([2]; first compound 0.2 µM) | relative viability ([2]; first compound 0.6325 µM) | relative viability ([2]; first compound 2 µM) | relative viability ([3]; first compound 0.02 µM) | relative viability ([3]; first compound 0.06325 µM) | relative viability ([3]; first compound 0.2 µM) | relative viability ([3]; first compound 0.6325 µM) | relative viability ([3]; first compound 2 µM) | relative viability ([4]; first compound 0.02 µM) | relative viability ([4]; first compound 0.06325 µM) | relative viability ([4]; first compound 0.2 µM) | relative viability ([4]; first compound 0.6325 µM) | relative viability ([4]; first compound 2 µM)
201T | 0.985 | 0.835 | 0.795 | 0.798 | 0.653 | 1.27 | 1 | 0.983 | 0.773 | 0.713 | 0.773 | 0.366 | 0.626 | 0.835 | 0.422 | 0.578 | 0.662 | 0.761 | 0.668 | 0.658
NCI-H3122 | 0.367 | 0.322 | 0.183 | 0.217 | 0.142 | 0.857 | 0.941 | 0.907 | 1.06 | 1.04 | 0.879 | 0.9 |  | 1.18 | 1.4 | 0.85 | 0.953 | 0.845 | 1.04 | 1.07
NCI-H838 | 0.275 | 0.24 | 0.225 | 0.217 | 0.22 | 0.778 | 0.853 | 1.03 | 0.894 | 0.92 | 0.335 | 0.326 | 0.354 | 0.366 | 0.319 | 0.81 | 0.753 | 0.789 | 0.871 | 0.632
NCI-H1755 | 0.544 | 0.537 | 0.604 | 0.63 | 0.545 | 0.813 | 0.83 | 0.899 | 0.838 | 0.833 | 0.619 | 0.654 | 0.655 | 0.683 | 0.644 | 0.443 | 0.408 | 0.354 | 0.448 | 0.409
HCC-15 | 0.345 | 0.234 | 0.161 | 0.148 | 0.15 | 0.947 | 0.935 | 1.03 | 1.01 | 0.998 | 0.656 | 0.568 | 0.582 | 0.651 | 0.552 | 1.11 | 1.13 | 1.37 | 1.22 | 1.31
NCI-H2087 | 0.189 | 0.166 | 0.111 | 0.12 | 0.108 | 1.05 | 1.11 | 1.3 | 1.04 | 1.04 | 0.75 | 0.403 | 0.47 | 0.642 | 0.587 | 1.41 | 1.33 | 1.31 | 1.22 | 1.37
LCLC-103H | 0.495 | 0.451 | 0.417 | 0.406 | 0.35 | 0.735 | 0.685 | 0.813 | 0.802 | 0.858 | 0.402 | 0.416 | 0.494 | 0.509 | 0.461 | 0.864 | 0.758 | 0.73 | 0.741 | 0.786
LK-2 | 0.183 | 0.17 | 0.186 | 0.217 | 0.184 |  |  |  | 1.23 | 1.41 |  |  | 0.184 | 0.195 | 0.211 | 0.173 | 0.278 | 0.162 | 0.32 | 0.271
NCI-H2342 | 0.488 | 0.435 |  | 0.516 | 0.492 | 1.15 | 0.927 | 1.05 | 0.914 | 1.13 | 0.617 | 0.616 | 0.596 | 0.535 | 0.65 | 0.434 | 0.459 | 0.393 | 0.42 | 0.406
ChaGo-K-1 | 0.232 | 0.223 | 0.214 | 0.201 | 0.191 | 0.921 | 0.911 | 0.828 | 0.861 | 0.918 | 0.56 | 0.672 | 0.339 | 0.613 | 0.609 | 0.703 | 0.868 | 0.723 | 0.848 | 0.877
HCC-78 | 0.426 | 0.416 | 0.38 | 0.452 | 0.36 | 0.545 | 0.554 |  | 0.509 | 0.552 | 0.368 | 0.335 |  | 0.392 | 0.35 | 0.502 | 0.546 | 0.6 | 0.608 | 0.348
NCI-H1666 | 0.589 | 0.546 | 0.602 | 0.541 | 0.475 | 0.972 | 0.991 | 0.938 | 0.879 | 1.02 | 0.853 | 0.914 | 0.842 | 0.729 | 0.818 | 0.896 | 0.79 | 0.826 | 0.742 | 0.871
EKVX | 0.387 | 0.397 | 0.335 | 0.227 | 0.26 | 0.877 | 0.842 | 0.806 | 0.662 | 0.773 | 0.589 | 0.434 | 0.855 | 0.682 | 0.627 | 0.676 |  |  | 0.644 | 0.607
NCI-H322M | 0.465 | 0.361 | 0.387 | 0.331 | 0.369 | 0.905 | 0.993 | 0.887 | 0.946 | 1.12 | 0.516 | 0.487 | 0.4 | 0.587 | 0.567 | 0.58 | 0.488 | 0.509 | 0.592 | 0.617
HARA | 0.12 | 0.101 | 0.0849 | 0.108 | 0.0591 | 0.94 | 0.68 |  | 0.818 | 0.848 | 0.539 | 0.449 |  | 0.505 | 0.586 | 0.197 | 0.368 |  | 0.358 | 0.345
NCI-H1437 | 0.266 | 0.289 | 0.239 | 0.204 | 0.175 | 1.34 | 1.22 | 1.34 | 1.31 | 1.3 | 0.862 | 0.897 | 0.793 | 0.927 | 1.01 | 1.23 | 1.2 | 1.1 | 1.17 | 1.26
BEN | 0.461 | 0.497 | 0.458 | 0.602 | 0.476 | 0.66 | 0.742 |  | 0.483 | 0.484 | 0.282 | 0.29 |  | 0.403 | 0.276 | 0.771 | 0.742 | 0.485 | 0.622 | 0.728
